# Measurements reported in PubChem BioAssay (NCI).
#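 GI50 = concentration required for 50% inhibition of growth. Definition used: TGI = concentration required for complete inhibition of growth.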
# Columns and labels:
# Assay in all cases: growth of human tumour cells (NCI), 384-well format
# 786-0 renal = system: 786-0 renal
# HCC-2998 colon = system: HCC-2998 colon
# SN12C renal = system: SN12C renal
# NCI/ADR-RES ovarian = system: NCI/ADR-RES ovarian
# SK-MEL-28 melanoma = system: SK-MEL-28 melanoma
# KM12 colon = system: KM12 colon
# SNB-75 CNS = system: SNB-75 CNS
# UO-31 renal = system: UO-31 renal
# MOLT-4 leukemia = system: MOLT-4 leukemia
# NCI-H522 lung = system: NCI-H522 lung
# SF-268 CNS = system: SF-268 CNS
# PC-3 prostate = system: PC-3 prostate
# M14 melanoma = system: M14 melanoma
# HOP-92 NSCLC = system: HOP-92 NSCLC
# MALME-3M melanoma = system: MALME-3M melanoma
# HT29 colon = system: HT29 colon
# K-562 leukemia = system: K-562 leukemia
# RXF 393 renal = system: RXF 393 renal
# UACC-62 melanoma = system: UACC-62 melanoma
# DU-145 prostate = system: DU-145 prostate
# IGROV1 ovarian = system: IGROV1 ovarian
# MCF7 breast = system: MCF7 breast
# SW-620 colon = system: SW-620 colon
# ACHN renal = system: ACHN renal
# MDA-MB-435 melanoma = system: MDA-MB-435 melanoma
# MDA-MB-468 breast = system: MDA-MB-468 breast
# HCT-15 colon = system: HCT-15 colon
# TK-10 renal = system: TK-10 renal
# HOP-62 NSCLC = system: HOP-62 NSCLC
# MDA-MB-231 breast = system: MDA-MB-231 breast
# A498 renal = system: A498 renal
# CAKI-1 renal = system: CAKI-1 renal
# UACC-257 melanoma = system: UACC-257 melanoma
# NCI-H23 lung = system: NCI-H23 lung
# NCI-H226 lung = system: NCI-H226 lung
# RPMI-8226 leukemia = system: RPMI-8226 leukemia
# OVCAR-3 ovarian = system: OVCAR-3 ovarian
# OVCAR-5 ovarian = system: OVCAR-5 ovarian
# SR leukemia = system: SR leukemia
# LOX IMVI melanoma = system: LOX IMVI melanoma
# SK-OV-3 ovarian = system: SK-OV-3 ovarian
# HS 578T breast = system: HS 578T breast
# CCRF-CEM leukemia = system: CCRF-CEM leukemia
# OVCAR-8 ovarian = system: OVCAR-8 ovarian
# SK-MEL-5 melanoma = system: SK-MEL-5 melanoma
# A549 NSCLC = system: A549 NSCLC
# HL-60(TB) leukemia = system: HL-60(TB) leukemia
# OVCAR-4 ovarian = system: OVCAR-4 ovarian
# SF-539 CNS = system: SF-539 CNS
# SF-295 CNS = system: SF-295 CNS
# BT-549 breast = system: BT-549 breast
# COLO 205 colon = system: COLO 205 colon
# EKVX NSCLC = system: EKVX NSCLC
# NCI-H460 NSCLC = system: NCI-H460 NSCLC
# NCI-H322M lung = system: NCI-H322M lung
# T-47D breast = system: T-47D breast
# SNB-19 CNS = system: SNB-19 CNS
structure (smiles),measurement,setting,value
CN1C(=O)C(C)(C)Oc2c(-c3cn(C)c(=O)c4[nH]ccc34)cc(S(C)(=O)=O)cc21,GI50,786-0 renal,355 nM
same,TGI,786-0 renal,7360 nM
same,GI50,HCC-2998 colon,150 nM
same,TGI,HCC-2998 colon,468 nM
same,GI50,SN12C renal,669 nM
same,TGI,SN12C renal,3550 nM
same,GI50,NCI/ADR-RES ovarian,5650 nM
same,TGI,NCI/ADR-RES ovarian,45900 nM
same,GI50,SK-MEL-28 melanoma,347 nM
same,TGI,SK-MEL-28 melanoma,4210 nM
same,GI50,KM12 colon,330 nM
same,TGI,KM12 colon,1910 nM
same,GI50,SNB-75 CNS,343 nM
same,TGI,SNB-75 CNS,7570 nM
same,GI50,UO-31 renal,2560 nM
same,TGI,UO-31 renal,> 100000 nM
same,GI50,MOLT-4 leukemia,220 nM
same,TGI,MOLT-4 leukemia,1010 nM
same,GI50,NCI-H522 lung,135 nM
same,TGI,NCI-H522 lung,544 nM
same,GI50,SF-268 CNS,728 nM
same,TGI,SF-268 CNS,3490 nM
same,GI50,PC-3 prostate,1040 nM
same,TGI,PC-3 prostate,50700 nM
same,GI50,M14 melanoma,364 nM
same,TGI,M14 melanoma,16300 nM
same,GI50,HOP-92 NSCLC,149 nM
same,TGI,HOP-92 NSCLC,1850 nM
same,GI50,MALME-3M melanoma,115 nM
same,TGI,MALME-3M melanoma,731 nM
same,GI50,HT29 colon,196 nM
same,TGI,HT29 colon,7840 nM
same,GI50,K-562 leukemia,268 nM
same,TGI,K-562 leukemia,5650 nM
same,GI50,RXF 393 renal,1730 nM
same,TGI,RXF 393 renal,10700 nM
same,GI50,UACC-62 melanoma,68.7 nM
same,TGI,UACC-62 melanoma,891 nM
same,GI50,DU-145 prostate,1290 nM
same,TGI,DU-145 prostate,22900 nM
same,GI50,IGROV1 ovarian,329 nM
same,TGI,IGROV1 ovarian,1390 nM
same,GI50,MCF7 breast,84.7 nM
same,TGI,MCF7 breast,949 nM
same,GI50,SW-620 colon,1280 nM
same,TGI,SW-620 colon,5610 nM
same,GI50,ACHN renal,1480 nM
same,TGI,ACHN renal,11000 nM
same,GI50,MDA-MB-435 melanoma,868 nM
same,TGI,MDA-MB-435 melanoma,12700 nM
same,GI50,MDA-MB-468 breast,114 nM
same,TGI,MDA-MB-468 breast,439 nM
same,GI50,HCT-15 colon,340 nM
same,TGI,HCT-15 colon,2270 nM
same,GI50,TK-10 renal,279 nM
same,TGI,TK-10 renal,1170 nM
same,GI50,HOP-62 NSCLC,287 nM
same,TGI,HOP-62 NSCLC,2270 nM
same,GI50,MDA-MB-231 breast,168 nM
same,TGI,MDA-MB-231 breast,2260 nM
same,GI50,A498 renal,381 nM
same,TGI,A498 renal,11500 nM
same,GI50,CAKI-1 renal,229 nM
same,TGI,CAKI-1 renal,2150 nM
same,GI50,UACC-257 melanoma,206 nM
same,TGI,UACC-257 melanoma,1330 nM
same,GI50,NCI-H23 lung,257 nM
same,TGI,NCI-H23 lung,1570 nM
same,GI50,NCI-H226 lung,223 nM
same,TGI,NCI-H226 lung,1710 nM
same,GI50,RPMI-8226 leukemia,23.4 nM
same,TGI,RPMI-8226 leukemia,152 nM
same,GI50,OVCAR-3 ovarian,232 nM
same,TGI,OVCAR-3 ovarian,1180 nM
same,GI50,OVCAR-5 ovarian,271 nM
same,TGI,OVCAR-5 ovarian,2240 nM
same,GI50,SR leukemia,72.8 nM
same,TGI,SR leukemia,531 nM
same,GI50,LOX IMVI melanoma,157 nM
same,TGI,LOX IMVI melanoma,327 nM
same,GI50,SK-OV-3 ovarian,237 nM
same,TGI,SK-OV-3 ovarian,1560 nM
same,GI50,HS 578T breast,65.2 nM
same,TGI,HS 578T breast,349 nM
same,GI50,CCRF-CEM leukemia,174 nM
same,TGI,CCRF-CEM leukemia,1390 nM
same,GI50,OVCAR-8 ovarian,235 nM
same,TGI,OVCAR-8 ovarian,1190 nM
same,GI50,SK-MEL-5 melanoma,178 nM
same,TGI,SK-MEL-5 melanoma,1140 nM
same,GI50,A549 NSCLC,389 nM
same,TGI,A549 NSCLC,7080 nM
same,GI50,HL-60(TB) leukemia,48.5 nM
same,TGI,HL-60(TB) leukemia,184 nM
same,GI50,OVCAR-4 ovarian,114 nM
same,TGI,OVCAR-4 ovarian,346 nM
same,GI50,SF-539 CNS,274 nM
same,TGI,SF-539 CNS,1050 nM
same,GI50,SF-295 CNS,1050 nM
same,TGI,SF-295 CNS,7540 nM
same,GI50,BT-549 breast,164 nM
same,TGI,BT-549 breast,785 nM
same,GI50,COLO 205 colon,228 nM
same,TGI,COLO 205 colon,1390 nM
same,GI50,EKVX NSCLC,1510 nM
same,TGI,EKVX NSCLC,11100 nM
same,GI50,NCI-H460 NSCLC,1160 nM
same,TGI,NCI-H460 NSCLC,10400 nM
same,GI50,NCI-H322M lung,441 nM
same,TGI,NCI-H322M lung,3900 nM
same,GI50,T-47D breast,156 nM
same,TGI,T-47D breast,865 nM
same,GI50,SNB-19 CNS,423 nM
same,TGI,SNB-19 CNS,7130 nM
